Each structure is given as a SMILES string. A value given as a limit tells only on which side of the number the result lay.

Test [1] addresses T1, Tyrosine-protein phosphatase non-receptor type 1 (Homo sapiens, UniProt P18031).
T1 sequence (P18031 whole entry): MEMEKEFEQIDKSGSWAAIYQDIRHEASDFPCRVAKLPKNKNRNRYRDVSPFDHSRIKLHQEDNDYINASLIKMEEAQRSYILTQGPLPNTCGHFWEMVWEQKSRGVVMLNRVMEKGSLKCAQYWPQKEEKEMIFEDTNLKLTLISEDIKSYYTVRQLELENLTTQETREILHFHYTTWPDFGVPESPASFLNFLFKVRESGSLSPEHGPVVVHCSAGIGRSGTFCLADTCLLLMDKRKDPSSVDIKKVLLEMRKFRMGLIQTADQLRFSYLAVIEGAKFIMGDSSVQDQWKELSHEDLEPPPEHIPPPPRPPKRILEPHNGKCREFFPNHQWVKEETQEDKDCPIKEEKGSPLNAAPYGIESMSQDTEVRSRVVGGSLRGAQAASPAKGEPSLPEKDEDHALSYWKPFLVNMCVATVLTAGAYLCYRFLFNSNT
The experiment in a line: Inhibition of wild type PTP1B.

For test [2], the target named is Tyrosine-protein phosphatase non-receptor type 1 (Homo sapiens, UniProt P18031, I219A). Nature of the test: Inhibition of PTP1B I219A mutant.
Test [3] deals with T2, Tyrosine-protein phosphatase non-receptor type 2 (Homo sapiens, UniProt P17706).
T2 sequence (P17706 whole entry): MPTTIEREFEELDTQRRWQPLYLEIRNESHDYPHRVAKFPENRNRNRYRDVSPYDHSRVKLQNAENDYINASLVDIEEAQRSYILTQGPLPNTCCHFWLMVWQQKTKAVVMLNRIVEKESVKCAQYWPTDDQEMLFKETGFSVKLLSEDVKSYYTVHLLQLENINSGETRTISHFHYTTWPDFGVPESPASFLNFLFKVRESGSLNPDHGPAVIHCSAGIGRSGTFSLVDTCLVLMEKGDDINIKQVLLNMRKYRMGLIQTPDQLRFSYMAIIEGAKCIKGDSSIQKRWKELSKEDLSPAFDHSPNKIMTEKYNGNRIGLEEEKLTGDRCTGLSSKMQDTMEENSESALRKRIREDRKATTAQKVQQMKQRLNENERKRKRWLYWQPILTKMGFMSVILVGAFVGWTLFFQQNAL
Nature of the test: Inhibition of TCPTP.

Test [4] concerns the target Tyrosine-protein phosphatase non-receptor type 2 (Homo sapiens, UniProt P17706, I220A). Nature of the test: Inhibition of TCPTP I220A mutant.
For test [5], the target named is Tyrosine-protein phosphatase non-receptor type 1 (Homo sapiens, UniProt P18031, V49A). Nature of the test: Inhibition of PTP1B V49A mutant.
For test [6], the target named is T3, Tyrosine-protein phosphatase non-receptor type 1 (Homo sapiens) (UniProt P18031).
T3 sequence (whole entry): T1 sequence (P18031 whole entry)
The experiment in a line: Selectivity for PTP1B V49A over wild type PTP1B.

Test [7] deals with Tyrosine-protein phosphatase non-receptor type 1 (Homo sapiens), P18031 [UNDEFINED MUTATION]. Nature of the test: Selectivity for PTP1B I219A over wild type PTP1B.

Sequence of Tyrosine-protein phosphatase non-receptor type 1 (Homo sapiens, UniProt P18031, I219A) (P18031 whole entry I219A): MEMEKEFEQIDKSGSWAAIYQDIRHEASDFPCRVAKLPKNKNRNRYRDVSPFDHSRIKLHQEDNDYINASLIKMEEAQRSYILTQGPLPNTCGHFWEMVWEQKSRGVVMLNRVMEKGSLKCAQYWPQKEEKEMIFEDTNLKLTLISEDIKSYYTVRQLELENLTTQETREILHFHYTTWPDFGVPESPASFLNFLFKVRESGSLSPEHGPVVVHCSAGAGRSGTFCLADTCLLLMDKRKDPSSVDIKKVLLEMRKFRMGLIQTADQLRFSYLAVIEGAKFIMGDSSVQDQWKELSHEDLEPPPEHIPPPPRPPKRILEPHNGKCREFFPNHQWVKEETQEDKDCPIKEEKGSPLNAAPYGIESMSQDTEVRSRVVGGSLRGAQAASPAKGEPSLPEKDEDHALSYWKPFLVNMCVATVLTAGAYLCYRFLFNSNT
Sequence of Tyrosine-protein phosphatase non-receptor type 2 (Homo sapiens, UniProt P17706, I220A) (P17706 whole entry I220A): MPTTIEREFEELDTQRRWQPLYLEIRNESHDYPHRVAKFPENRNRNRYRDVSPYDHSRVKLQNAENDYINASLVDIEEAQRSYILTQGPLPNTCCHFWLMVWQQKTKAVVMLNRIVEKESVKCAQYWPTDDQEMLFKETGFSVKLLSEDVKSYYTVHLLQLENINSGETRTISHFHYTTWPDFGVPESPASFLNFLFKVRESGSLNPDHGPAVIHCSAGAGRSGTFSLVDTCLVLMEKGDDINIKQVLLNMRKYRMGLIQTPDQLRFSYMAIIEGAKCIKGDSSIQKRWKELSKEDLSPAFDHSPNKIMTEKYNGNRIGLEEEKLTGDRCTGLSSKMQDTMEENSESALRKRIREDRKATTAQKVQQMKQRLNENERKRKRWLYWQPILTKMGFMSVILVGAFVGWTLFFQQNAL
Sequence of Tyrosine-protein phosphatase non-receptor type 1 (Homo sapiens, UniProt P18031, V49A) (P18031 whole entry V49A): as the sequence (P18031 whole entry I219A) above, with V49A, A219I counted along it

The term Ki denotes a measure of affinity in units of concentration, obtained from inhibition or displacement. On to `O=C(O)C(=O)Nc1sc2c(c1C(=O)O)CCNC2`, for which the Ki turned out to be 6 µM in test [1], 0.23 µM in test [2], 10 µM in test [3] and 0.71 µM in test [4].
Consider `CC1(C)Cc2c(sc(NC(=O)C(=O)O)c2C(=O)O)C(C)(C)C1`, for which the Ki was greater than 300 µM in test [1], 10 µM in test [2] and 27 µM in test [5]. For the same molecule, the figures for the Selectivity ratio in test [6] and in test [7] were greater than 10 and greater than 30, respectively.

The values above are taken from ChEMBL document CHEMBL1145347, “A gatekeeper residue for inhibitor sensitization of protein tyrosine phosphatases” (Bioorg Med Chem Lett, 2006).
